These results are taken from patent publication US9907800B2, “Kinase inhibitors and method of treating cancer” (University Health Network, priority 2010, dated 2018).

Structures can show the parent of a compound that is named as a salt.

Holding throughout (assay type): biochemical
One experiment deals with Aurora B (Homo sapiens (Human), UniProt Q96GD4). The experiment is described as follows: Aurora B inhibition assay (Z-Lyte). Particulars: read-out: Aurora B IC50 Ranges.
A further experiment deals with human PLK4 (Homo sapiens (Human), UniProt O00444). The experiment is described as follows: PLK4 inhibition assay (indirect ELISA). The conditions noted are these: read-out: PLK4 IC50 Ranges. A general note: In an ELISA, binding on a coated surface is turned into a signal by an enzyme label.
Chain of human PLK4 (O00444 1-391): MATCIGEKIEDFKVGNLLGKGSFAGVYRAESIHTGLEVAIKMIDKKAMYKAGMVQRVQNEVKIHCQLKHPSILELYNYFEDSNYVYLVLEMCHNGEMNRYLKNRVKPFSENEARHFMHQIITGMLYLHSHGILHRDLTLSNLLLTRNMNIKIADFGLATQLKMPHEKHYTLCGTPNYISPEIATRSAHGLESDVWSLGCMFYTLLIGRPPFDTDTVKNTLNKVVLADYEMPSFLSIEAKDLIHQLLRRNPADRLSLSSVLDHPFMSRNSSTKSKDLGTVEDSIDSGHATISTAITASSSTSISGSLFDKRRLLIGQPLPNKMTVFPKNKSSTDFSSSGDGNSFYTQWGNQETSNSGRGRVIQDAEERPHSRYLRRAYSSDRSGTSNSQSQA
In a further experiment the target is FLT3 (Homo sapiens (Human), UniProt P36888). The experiment is described as follows: FLT3 inhibition assay (Z-Lyte). Particulars: read-out: Flt3 IC50 Ranges.
Chain of FLT3 (P36888 27-993): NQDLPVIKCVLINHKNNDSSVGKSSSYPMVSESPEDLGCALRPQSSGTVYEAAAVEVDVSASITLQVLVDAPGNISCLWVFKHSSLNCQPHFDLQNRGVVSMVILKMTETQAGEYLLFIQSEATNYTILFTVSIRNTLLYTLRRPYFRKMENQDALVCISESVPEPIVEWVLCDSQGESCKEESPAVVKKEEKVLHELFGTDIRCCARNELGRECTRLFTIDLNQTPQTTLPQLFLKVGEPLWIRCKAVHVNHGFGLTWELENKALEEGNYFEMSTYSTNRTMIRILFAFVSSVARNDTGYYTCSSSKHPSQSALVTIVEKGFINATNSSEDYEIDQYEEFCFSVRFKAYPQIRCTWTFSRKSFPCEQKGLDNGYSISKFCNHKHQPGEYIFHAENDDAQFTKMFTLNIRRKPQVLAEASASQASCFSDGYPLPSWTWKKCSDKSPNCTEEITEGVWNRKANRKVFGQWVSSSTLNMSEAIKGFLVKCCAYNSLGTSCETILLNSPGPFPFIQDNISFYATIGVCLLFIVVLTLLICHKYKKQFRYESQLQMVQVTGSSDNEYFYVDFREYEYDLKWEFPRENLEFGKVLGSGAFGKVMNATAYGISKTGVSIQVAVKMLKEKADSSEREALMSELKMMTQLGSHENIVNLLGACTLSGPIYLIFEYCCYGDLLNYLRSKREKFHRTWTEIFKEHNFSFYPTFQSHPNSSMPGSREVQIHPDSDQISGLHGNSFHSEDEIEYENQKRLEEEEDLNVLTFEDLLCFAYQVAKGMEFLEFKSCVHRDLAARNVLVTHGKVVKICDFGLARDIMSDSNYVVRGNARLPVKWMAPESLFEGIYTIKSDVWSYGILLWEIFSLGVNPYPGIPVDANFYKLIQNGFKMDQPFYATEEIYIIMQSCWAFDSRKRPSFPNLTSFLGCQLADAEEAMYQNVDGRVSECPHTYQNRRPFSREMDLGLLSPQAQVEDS

Chain of Aurora B (Q96GD4 whole entry): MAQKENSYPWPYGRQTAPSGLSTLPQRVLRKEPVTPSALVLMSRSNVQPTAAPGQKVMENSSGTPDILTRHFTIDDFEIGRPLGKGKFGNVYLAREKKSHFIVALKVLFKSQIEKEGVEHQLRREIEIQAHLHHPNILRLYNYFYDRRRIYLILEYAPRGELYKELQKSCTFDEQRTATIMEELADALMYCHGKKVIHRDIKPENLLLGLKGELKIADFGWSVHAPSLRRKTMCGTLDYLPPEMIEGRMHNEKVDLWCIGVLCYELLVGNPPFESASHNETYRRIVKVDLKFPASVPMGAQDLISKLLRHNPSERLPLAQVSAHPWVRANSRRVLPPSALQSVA
Procedure for Aurora B: Aurora B inhibition was determined using the Z-Lyte assay kit from Invitrogen. […] The % inhibition values were determined according to the manufacturer's directions and IC50 values were obtained using a non-linear 4 point logistic curve fit (XLfit4, IDBS)
Procedure for FLT3: The enzymatic activity of FLT3 was determined using the Z-Lyte assay kit from Invitrogen (Invitrogen cat #PV3191). […] The % inhibition values were determined according to the manufacturer's directions and IC50 values were obtained using a non-linear 4 point logistic curve fit (XLfit4, IDBS).

What is called IC50 is the concentration at which inhibition is half-maximal. As to `CCN1CCN(c2ccc(-c3n[nH]c4cc([C@@H]5C[C@@]56C(=O)Nc5ccc(OC)cc56)ccc34)cc2)CC1` [Example A99, (1R,2S)-2-(3-(4-(4-ethylpiperazin-1-yl)phenyl)-1H-indazol-6-yl)-5′-methoxyspiro[cyclopropane-1,3′-indolin]-2′-one 2,2,2-trifluoroacetate], the concentration for half-maximal inhibition (IC50) at Aurora B, on human PLK4 and at FLT3 was less than 100 nM throughout.

With `COc1ccc2c(c1)[C@]1(C[C@H]1c1ccc3c(-c4ccc(CO)cc4)n[nH]c3c1)C(=O)N2` (relative stereo) [Example A45, (1R*,2S*)-2-(3-(4-(hydroxymethyl)phenyl)-1H-indazol-6-yl)-5′-methoxyspiro[cyclopropane-1,3′-indolin]-2′-one 2,2,2-trifluoroacetate], the IC50 was 100 to 1000 nM at Aurora B, less than 100 nM on human PLK4 and greater than 1000 nM at FLT3.

In the case of `COc1ccc2c(c1)[C@]1(C[C@H]1c1ccc3c(-c4ccc(N5C[C@@H](C)N[C@@H](C)C5)cc4)n[nH]c3c1)C(=O)N2` [Example A126, (1R,2S)-2-(3-(4-(cis-3,5-dimethylpiperazin-1-yl)phenyl)-1H-indazol-6-yl)-5′-methoxyspiro[cyclopropane-1,3′-indolin]-2′-one 2,2,2-trifluoroacetate], the values for the IC50 at Aurora B, at human PLK4 and at FLT3 were less than 100 nM, less than 100 nM and 100 to 1000 nM, respectively.

As for `COc1ccc2c(c1)[C@]1(C[C@H]1c1ccc3c(/C=C/c4ccc(CN5CC[C@@H](F)C5)cc4)n[nH]c3c1)C(=O)N2` [Example A112, (1R,2S)-(E)-2-(3-(4-(((R)-3-fluoropyrrolidin-1-yl)methyl)styryl)-1H-indazol-6-yl)-5′-methoxyspiro[cyclopropane-1,3′-indolin]-2′-one 2,2,2-trifluoroacetate], the concentration for half-maximal inhibition (IC50) at Aurora B was less than 100 nM; at human PLK4 it was less than 100 nM; on FLT3 it was 100 to 1000 nM.

Consider `COc1ccc2c(c1)[C@]1(C[C@H]1c1ccc3c(-c4ccc5c(c4)CNCC5)n[nH]c3c1)C(=O)N2` [Example A71, (1R,2S)-5′-methoxy-2-(3-(1,2,3,4-tetrahydroisoquinolin-7-yl)-1H-indazol-6-yl)spiro[cyclopropane-1,3′-indolin]-2′-one 2,2,2-trifluoroacetate salt], for which the IC50 is less than 100 nM on Aurora B, less than 100 nM on human PLK4 and 100 to 1000 nM at FLT3.

For `CCc1ccc2c(c1)[C@]1(C[C@H]1c1ccc3c(-c4cccc(CN5CCOCC5)c4)n[nH]c3c1)C(=O)N2` (relative stereo) [Example A141, (1R*,2S*)-5′-ethyl-2-(3-(3-(morpholinomethyl)phenyl)-1H-indazol-6-yl)spiro[cyclopropane-1,3′-indolin]-2′-one 2,2,2-trifluoroacetate], the half-maximal inhibitory concentration (IC50) at Aurora B, on human PLK4 and on FLT3 was greater than 1000 nM each time.

With `COc1ccc2c(c1)[C@]1(C[C@H]1c1ccc3c(-c4ccc(N5CCN(C6CCCC6)CC5)cc4)n[nH]c3c1)C(=O)N2` [Example A192, (1R,2S)-2-(3-(4-(4-cyclopentylpiperazin-1-yl)phenyl)-1H-indazol-6-yl)-5′-methoxyspiro[cyclopropane-1,3′-indolin]-2′-one 2,2,2-trifluoroacetate], the half-inhibitory concentration (IC50) at Aurora B was less than 100 nM; on human PLK4 it was less than 100 nM; at FLT3, 100 to 1000 nM.

For `COc1ccc2c(c1)[C@]1(C[C@H]1c1ccc3c(-c4cccc(CN5CCCCC5)c4)n[nH]c3c1)C(=O)N2` (relative stereo) [Example A44, (1R*,2S*)-5′-methoxy-2-(3-(3-(piperidin-1-ylmethyl)phenyl)-1H-indazol-6-yl)spiro[cyclopropane-1,3′-indolin]-2′-one 2,2,2-trifluoroacetate], the IC50 on Aurora B was 100 to 1000 nM; at human PLK4 it was less than 100 nM; on FLT3 it was greater than 1000 nM.

Turning to `COc1ccc2c(c1)[C@]1(C[C@H]1c1ccc3c(-c4cccc(C(=O)N5CCN(C)CC5)c4)n[nH]c3c1)C(=O)N2` (relative stereo) [Example A149, (1R*,2S*)-5′-methoxy-2-(3-(3-(4-methylpiperazine-1-carbonyl)phenyl)-1H-indazol-6-yl)spiro[cyclopropane-1,3′-indolin]-2′-one 2,2,2-trifluoroacetate], the values for the IC50 at Aurora B, on human PLK4 and on FLT3 were greater than 1000 nM, less than 100 nM and greater than 1000 nM, respectively.

For `COc1ccc2c(c1)[C@]1(C[C@H]1c1ccc3c(-c4cccc(N5CCNCC5)c4)n[nH]c3c1)C(=O)N2` (relative stereo) [Example A47, (1R*,2S*)-5′-methoxy-2-(3-(3-(piperazin-1-yl)phenyl)-1H-indazol-6-yl)spiro[cyclopropane-1,3′-indolin]-2′-one 2,2,2-trifluoroacetate], the 50% inhibitory concentration (IC50) at Aurora B was 100 to 1000 nM; on human PLK4 it was less than 100 nM; at FLT3, greater than 1000 nM.
